The source of these data is patent US12410323B2, “Potent antifouling agents albofungins target multiple fouling organisms” (The Hong Kong University of Science and Technology, priority 2021, dated 2025).

For series [1], the system named is MCCC 1A04899 Sulfitobacter pontiacus. In words: Biofilm inhibition assay (MTT), marine bacteria. Conditions: lowest concentration inhibiting 90% of biofilm formation; 24 h. Type of series: cell-based. How it is done: (§1) The ability of the bacteria to form static biofilms was tested. Marine bacteria were cultured overnight in marine broth at 22° C. with 220 rpm agitation (Pseudomonas pachastrellae MCCC 1A01390, Sulfitobacter pontiacus MCCC 1A04899 and Psychrobacter nivimaris MCCC 1A 11723) and at 30° C. (Staphylococcus aureus B04, Staphylococcus sp. Z01 and Micrococcus sp. Z02) and then diluted to 10^7 CFU mL^−1 in marine broth supplemented with 1% of glucose; pathogenic bacteria was cultured overnight in LB broth with 1% glucose with 220 rpm at 37° C. Afterwards, 200 μL of the diluted solution were added to each well of a 96-well plate (Corning Inc., New York, USA) and was then incubated at 22° C. or 30° C. for 24 h. The culture medium, planktonic cells and loosely adhered bacteria were removed by dual washing with a phosphate-buffered saline (PBS) buffer, and the firmly attached bacteria were incubated with 20 μL of MTT (5 mg mL^−1) at 37° C. for 3 h. The supernatant was discarded, and formazan was dissolved in 150 μL of DMSO. Absorbance was measured using the Multiskan™ FC microplate photometer (Thermo Fisher Scientific, Waltham, USA) under 570 nm, and MRSA ATCC 43300 was used as a positive control. All the experiments were performed in triplicate.
(§2) The antibacterial activities of albofungins were tested following specific protocols (She et al., 2020). Marine broth was used as the test medium for the marine bacteria, and the MHB broth was used as the test medium for the pathogenic bacteria. The plate was kept at 22° C. or 30° C. overnight, and the minimum inhibitory concentration (MIC) is the lowest concentration that the drug prevents the visible growth of bacteria. The bacteria which have successfully formed biofilms were further used for antibiofilm formation assays. Different concentrations of albofungin compounds were added to each well. Biofilm formation was assessed through the MTT assay as previously described. […] Data were analyzed using one-way ANOVA to detect significant differences and standard deviation (SD) was calculated using GraphPad Prism 9. All the assays were performed in triplicate.

For series [2], the system named is MCCC 1A01390 Pseudomonas pachastrellae. In words: Biofilm inhibition assay (MTT), marine bacteria. Format: cell-based. Conditions: lowest concentration inhibiting 90% of biofilm formation; 24 h. The protocol: as §1, §2
The test system of series [3] is Micrococcus sp. Z02. In words: Biofilm inhibition assay (MTT), marine bacteria. Type of series: cell-based. Conditions: lowest concentration inhibiting 90% of biofilm formation; 24 h. How it is done:
as §1, §2

The subject of series [4] is MCCC 1A11723 Psychrobacter nivimaris. As to the kind of experiment: Biofilm inhibition assay (MTT), marine bacteria. Type of series: cell-based. Conditions: lowest concentration inhibiting 90% of biofilm formation; 24 h. How it is done: as §1, §2
Series [5] relates to Staphylococcus sp. Z01. As to the kind of experiment: Biofilm inhibition assay (MTT), marine bacteria. Format: cell-based. To be noted: lowest concentration inhibiting 90% of biofilm formation; 24 h. How it is done:
as §1, §2

Series [6] deals with Staphylococcus aureus 04. In words: Biofilm inhibition assay (MTT), marine bacteria. Type of series: cell-based. Conditions: lowest concentration inhibiting 90% of biofilm formation; 24 h. How it is done:
as §1, §2

A further series has as its system MRSA ATCC 43300. In words: Biofilm inhibition assay (MTT), pathogenic bacteria. Conditions: lowest concentration inhibiting 90% of biofilm formation. Format: cell-based, Staphylococcus aureus. How it is done: as §1
as §2, with “All the assays were performed in triplicate.” left out

The subject of the next series is Escherichia coli k12. The series is described as above. Type of series: cell-based. Conditions: lowest concentration inhibiting 90% of biofilm formation. The protocol:
as §1, §2

For series [7], the system named is Enterobacter cloacae NRRL-B-425. The description is as above. Conditions: lowest concentration inhibiting 90% of biofilm formation. Format: cell-based. How it is done: as §1, §2
Series [8] concerns Acinetobacter baumannii B-65371. The series is described as above. Type of series: cell-based. Conditions: lowest concentration inhibiting 90% of biofilm formation. How it is done:
as §1, §2

The nature of series [9]: Anti-larval settlement bioassay, barnacle. Type of series: in vivo, Amphibalanus amphitrite. To be noted: Amphibalanus amphitrite (barnacle), cyprid larvae, in vivo; larval mortality, 48 h at 25° C. The protocol: (§3) A. amphitrite adults were collected from Pak Sha Wan Pier, Hong Kong (22° 38′N, 114° 28′E) and after keeping in the dark for 24 h, a light source was used to stimulate the larval release. Within 1 h, the larvae were collected and cultured in 0.22 μm filtered seawater with a daily diet of Chaetoceros gracilis Schutt at 1×10^6 cells mL^−1 until their growth into cyprids, which were used for the anti-larval settlement bioassay. The bryozoan B. neritina adults were collected from a fish farm in Pak Shek Kok, Hong Kong (22° 43′N, 114° 20′E) and kept in flow-through seawater for no more than 7 days before use. The larvae were released within 30 minutes before the bioassay as described (Xu et al., 2010). The bioassay was conducted in a 24-well polystyrene tissue culture plate with 15-20 larvae in each well. 0.1% of DMSO in filtered seawater (FSW), and 0.625, 1.25, 2.5, 5, 10, 20, and 40 μg mL^−1 albofungin concentrations were tested in triplicate. In each well, 1 mL of FSW containing 15-20 larvae and 1 mL of albofungin solution of different concentrations. The plate was kept for 48 h at 25° C. (bryozoan B. neritina larvae were kept for 3 h). The wells with 0.1% of DMSO in FSW served as a negative control, and butenolide was used as a positive control. The number of attached, swimming, and dead larvae were counted under an Olympus optical microscope (Olympus Corporation, Tokyo, Japan). The settlement rate was calculated as the ratio of settled larvae to the total number of larvae in each well, and the death rate was calculated as the ratio of dead or missing larvae to the total number of larvae in each well. Half maximal effective concentration (EC50) and half lethal concentration (LC50) were determined for each compound, and the ratio of LC50/EC50 was used to evaluate the toxicity of the antifoulant. Experiments were performed in triplicate. Data were analyzed by one-way ANOVA to detect significant differences in the larval settlement, and SD was calculated by GraphPad Prism 9.

Series [10] has as its system barnacle Amphibalanus amphitrite larvae. In words: Anti-larval settlement bioassay, barnacle. Format: in vivo. To be noted: for EC50: Amphibalanus amphitrite; for settlement rate compared with control group (0.1% DMSO in FSW): after 48 h of incubation. How it is done:
as §3

For series [11], the system named is MCCC 1A04899 Sulfitobacter pontiacus. As to the kind of experiment: Bacterial growth inhibition (antibacterial assay, MIC). Type of series: cell-based. How it is done: as §2
Series [12] has as its system MCCC 1A01390 Pseudomonas pachastrellae. Described as above. Format: cell-based. Conditions: Halopseudomonas pachastrellae; marine broth, overnight. The protocol: as §2
Series [13] relates to Micrococcus sp. Z02. The description is as above. Type of series: cell-based. Conditions: marine broth, overnight. The protocol:
as §2

In series [14] the test system is MCCC 1A11723 Psychrobacter nivimaris. The series is described as above. Type of series: cell-based. Conditions: marine broth, overnight. The protocol:
as §2

The test system of series [15] is Staphylococcus sp. Z01. The description is as above. Format: cell-based. To be noted: marine broth, overnight. How it is done:
as §2

Series [16] has as its system Staphylococcus aureus 04. The description is as above. Format: cell-based. To be noted: marine broth, overnight. How it is done: as §2
[17] abbreviates: larval settlement, 48 h at 25° C., read-out: EC50.

Converted amounts (≈) assume the structure as drawn. Like-named read-outs stand apart in the source and are kept apart here.

As to `Cc1cc2cc3c(c(O)c2c(=O)n1N)-c1c2c(c4oc5c(c(=O)c4c1O)[C@@H](O)CC[C@H]5O)OCO[C@@H]2C3` [Albofungin A (2), albofungin A], the MBIC90 in series [1] is 0.02 to 0.03 µg/mL; in [2], 0.02 to 0.03 µg/mL; with Micrococcus sp. Z02 [3], 62.5 to 125 ng/mL; in [4], greater than 20 µg/mL; with Staphylococcus sp. Z01 [5] it was 0.63 to 1.25 ng/mL; with Staphylococcus aureus 04 [6], 15.63 to 31.25 ng/mL. In addition, the MBIC90 with MRSA ATCC 43300 lay in the range of 0.01 to 0.03 µg/mL; in the series with Escherichia coli k12, 0.31 to 0.63 µg/mL; in [7], 0.63 to 1.25 µg/mL; in [8], 0.13 to 0.25 µg/mL. Moreover, the LC50 at 48 h in series [9] was greater than 100 µg/mL. Besides, the larval settlement rate in series [10] (20 μg mL^−1, 48 h) is 17% (±12.7%). Further, a half-maximal effect in [10] (48 h) (EC50) was put at 12.2 µg/mL (≈ 24.1 µM). The “settlement rate compared with control group (0.1% DMSO in FSW)” value (shortened to “settlement rate … (0.1% DMSO in FSW)”) in [10] is “significantly lower”. In series [10] (ratio used to evaluate toxicity of the antifoulant), the LC50/EC50 worked out at 8.2. Also, the MIC in series [11] was 0.008 µg/mL (≈ 0.0158 µM); in series [12], 0.12 µg/mL (≈ 0.237 µM); against Micrococcus sp. Z02 [13], 0.0064 µg/mL (≈ 0.0126 µM); in series [14], greater than 20 µg/mL; against Staphylococcus sp. Z01 [15] it was 0.0008 µg/mL (≈ 0.00158 µM); against Staphylococcus aureus 04 [16], 0.0064 µg/mL (≈ 0.0126 µM).

Turning to `CO[C@@H]1CC[C@H](O)c2c1oc1c3c4c(c(O)c1c2=O)-c1c(cc2c(Cl)c(C)n(N)c(=O)c2c1O)C[C@H]4OCO3` [Chloroalbofungin (3), chloroalbofungin], the MBIC90 was 10 to 20 µg/mL in [1]; greater than 20 µg/mL in series [2]; 250 to 500 ng/mL in the series on Micrococcus sp. Z02 [3]; greater than 20 µg/mL in [4]; 100 to 200 ng/mL in the series with Staphylococcus sp. Z01 [5]; 250 to 500 ng/mL in the series with Staphylococcus aureus 04 [6]. Besides, the LC50 at 48 h in [9] is greater than 100 µg/mL. Besides, in series [10] (setting [17]), the EC50 was 35 µg/mL (≈ 63.1 µM). In addition, the “settlement rate … (0.1% DMSO in FSW)” value in series [10] is recorded as “did not cause significant difference”. Further, the MIC in series [11] is greater than 20 µg/mL; in [12] it was greater than 20 µg/mL; against Micrococcus sp. Z02 [13] it was 0.05 µg/mL (≈ 0.0901 µM); in series [14] it was greater than 20 µg/mL; with Staphylococcus sp. Z01 [15], 0.0016 µg/mL (≈ 0.00288 µM); with Staphylococcus aureus 04 [16] it was 0.0125 µg/mL (≈ 0.0225 µM).

Take `CO[C@@H]1CC[C@H](O)c2c1oc1c3c4c(c(O)c1c2=O)-c1c(cc2cc(C)[nH]c(=O)c2c1O)C[C@H]4OCO3` [Chrestoxanthone A (4), chrestoxanthone A]: the MBIC90 is 10 to 20 µg/mL in series [1]; greater than 20 µg/mL in [2]; 125 to 250 ng/mL in the series on Micrococcus sp. Z02 [3]; greater than 20 µg/mL in [4]; 5 to 10 ng/mL in the series with Staphylococcus sp. Z01 [5]; 62.5 to 125 ng/mL with Staphylococcus aureus 04 [6]. In addition, the MBIC90 with MRSA ATCC 43300 was 0.13 to 0.25 µg/mL; in series [7] it was greater than 10 µg/mL; in [8], 1.25 to 2.5 µg/mL. The same molecule registered an LC50 at 48 h in series [9] greater than 100 µg/mL. Also, the EC50 in series [10] (setting [17]) was greater than 36.8 µg/mL. In addition, the “settlement rate … (0.1% DMSO in FSW)” value in [10] is “did not cause significant difference”. The MIC in series [11] (marine broth, overnight, read-out: MIC) was 20 µg/mL (≈ 39.6 µM); in series [12], greater than 20 µg/mL; against Micrococcus sp. Z02 [13] it was 0.0125 µg/mL (≈ 0.0247 µM); in [14] it was greater than 20 µg/mL; against Staphylococcus sp. Z01 [15], 0.0016 µg/mL (≈ 0.00317 µM); in the series with Staphylococcus aureus 04 [16], 0.0125 µg/mL (≈ 0.0247 µM).
